According to US11702402B2, “Small molecules that block proteasome-associated ubiquitin receptor RPN13 function and uses thereof” (DANA-FARBER CANCER INSTITUTE, INC., priority 2018, dated 2023):
Where a SMILES comes first, the peptide text is derived from it. The star is where a group is joined. Cbz = O=C(OCc1ccccc1)*

Key:
RPN13 = RPN13 (Homo sapiens, UniProt Q16186); assay: Rpn13 immunoblot in MM.1S cells; assay type: cell-based; set-up: endogenous in cells; host or cells: MM.1S; MM.1S-CRBN KO; RPMI-8226; ANBL6.BR
RPN13, sequence (Q16186 whole entry): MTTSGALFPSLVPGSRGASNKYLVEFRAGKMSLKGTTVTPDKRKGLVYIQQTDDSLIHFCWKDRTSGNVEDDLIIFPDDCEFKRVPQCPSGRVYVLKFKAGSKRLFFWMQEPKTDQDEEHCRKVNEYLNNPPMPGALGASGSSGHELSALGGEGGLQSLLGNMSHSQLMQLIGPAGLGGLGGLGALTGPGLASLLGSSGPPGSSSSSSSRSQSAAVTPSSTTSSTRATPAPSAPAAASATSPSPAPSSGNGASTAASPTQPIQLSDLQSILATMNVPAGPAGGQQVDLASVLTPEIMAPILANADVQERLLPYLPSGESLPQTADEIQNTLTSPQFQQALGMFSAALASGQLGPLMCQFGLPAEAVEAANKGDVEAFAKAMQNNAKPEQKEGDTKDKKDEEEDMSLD
Method: Protein lysates were loaded on SDS-PAGE and transferred to PVDF membrane, and then immunoblotted with anti-alpha tubulin and Rpn13 antibodies.
In FIG. 17, MM.1S cells were treated with RA190 or JQRA at 200 nM and 400 nM, respectively, for 48 hours; and treated with RA190 or JQRA at 200 nM and 800 nM, respectively, for 48 hours. Protein lysates were loaded on SDS-PAGE and transferred to PVDF membrane, and then immunoblotted with anti-alpha tubulin and Rpn13 antibodies.
MM.1S cells, which were treated with DMSO control, bortezomib, or WL40 at indicated concentration for 3 hours; protein lysates were analyzed for different proteasome activities (CT-L, chymotrypsin-like; T-L, trypsin-like; C-L, caspase-like). FIG. 20B is a bar graph showing percent proteasome activity after normalization with DMSO control (mean±SD; n=3). Recombinant 20S proteasome was incubated with DMSO, bortezomib, or WL40 for 30 minutes, followed by assessment of the above-noted proteasome activities. FIG. 20C MM.1S cells were pretreated with exemplary proteasome inhibitor MG132 (10 μM) for 1 hour, followed by addition of WL40 (400 nM) for 8 hours. […] Total protein lysates were subjected to immunoblots for Rpn13 and α-tubulin. […] FIG. 20E ANBL6.BR cells were treated with WL40 (400 nM) or RA190 (500 nM) for 16 hours; protein lysates were subjected to immunoblot analysis using anti-Rpn13 or anti-β-actin Abs.
Cellular protein extracts were prepared using RIPA lysis buffer (50 mM Tris-HCl, 150 mM NaCl, 1% NP-40, 0.5% sodium deoxycholate, and 0.1% SDS). Protein lysates were subjected to immunoblotting using antibodies against poly ADP ribose polymerase (PARP, BD Bioscience Pharmingen, San Diego, Calif.), caspase 3, caspase 8, p53 (Santa Cruz Biotechnology), caspase 9, p-eIF2a (Abeam, Cambridge, Mass.), caspase 7, cyclin B1, CDC25C, CDCl2, p21, Rpn13, PERK, BIP, Calnexin, GFP, LC3A/B, α-tubulin (Cell Signaling, Beverly, Mass.), polyubiquitin (Enzo Life Sciences, Inc., Farmingdale, N.Y.), or β-actin (Sigma-Aldrich, St. Louis, Mo.).
Next, it was examined whether WL40 decreases cellular Rpn13 levels in MM cells. MM.1S cells were treated with various concentrations of WL40 (20 0 nM, 400 nM, or 800 nM) for 4 hours, 8 hours, and 16 hours; protein lysates were then analyzed for Rpn13 levels using immunoblot analysis. […] Decrease in Rpn13 levels was detectable as early as 8 hours after WL40 treatment and maximally (95%) reduced at 16 hours. Rpn13 protein level reduction was not observed with RA190 treatment (FIG. 19E, lower panel). There was no change in protein levels of tubulin, used as a loading control (FIG. 19E). To further corroborate the findings, MM.1S cells were treated with WL40, and then analyzed intracellular alterations in Rpn13 using flow cytometry.

[1] = system: Ub-tagged GFP that is constitutively targeted for proteasomal degradation; assay: Ub-GFP (GFPu-1) reporter cell line immunoblot; assay type: cell-based; conditions: WL40, WL44 0.5-2.0 μM; RA190 1 μM; 16 hours
Method: Cell lysates were loaded on SDS-PAGE, transferred to PVDF membrane, then immunoblotted with anti-GFP, and anti beta-actin antibodies.
In FIG. 18, a reporter cell line expressing Ub-tagged GFP that is constitutively targeted for proteasomal degradation was treated with RA190 ([…]); and JQRA ([…]) for 16 hours. Cell lysates were loaded on SDS-PAGE, transferred to PVDF membrane, then immunoblotted with anti-GFP, and anti-alpha tubulin antibodies.
FIGS. 19A-19I show the exemplary design and characterization of exemplary Rpn13 degrader WL40. […] WL40 was created by linking the Rpn13 inhibitor RA190 to the IMiD thalidomide as a ligand for the CRBN E3 ligase via a PEG linker. […] FIG. 19C is a schematic cartoon for the novel AlphaScreen assay to measure the binding activity of inhibitor with RPN13 proteins. […] FIG. 19E depicts immunoblot analysis of multiple myeloma 1S (MM.1S) cells, which were treated with WL40 or RA190 at the indicated concentrations and time periods; protein lysates were subjected to the immunoblot analysis using anti-Rpn13 or anti-tubulin Abs. FIG. 19F depicts flow cytometry analysis of MM.1S cells, which were treated with DMSO control, WL40 (400 nM), or RA190 (500 nM) for 16 hours; cells were then washed and stained with Rpn13 Ab conjugated with AlexaFluor-647, followed by the flow cytometry analysis. Isotype Ab conjugated to AlexaFluor-647 was used as control for non-specific binding. Data was quantified using FACS Diva (BD Biosciences, USA) and FlowJo (FlowJo LLC, USA). FIG. 19G depicts immunoblot analysis of MM.1S-CRBN KO cells, which were treated with WL40 (400 nM) or RA190 (500 nM) for 16 hours; protein lysates were subjected to the immunoblot analysis using anti-Rpn13 or anti β-actin Abs. […]
To confirm that CRBN presence is a prerequisite for the function of WL40 in cells, CRBN-knockout (KO) MM.1S cells^27, 38 were utilized, and the effect of WL40 on Rpn13 degradation was examined. […] GFPu-1 cells were treated with WL40, and GFP levels were then analyzed using immunoblotting. […]

[2] = system: multiple myeloma cell lines; assay: Viability of a panel of multiple myeloma cell lines; assay type: cell-based, Human; conditions: multiple myeloma cell lines; 48 hours; Wst-1
Source text: FIGS. […] Wst-1 assay was used to test cell viability. FIGS. 6A and 6B show the effect of exemplary bifunctional compounds WL40 and WL44 on multiple myeloma cell lines.

normal PBMCs = assay: Viability of normal PBMCs; assay type: cell-based, Human; conditions: at the IC50; 48 hours; Wst-1
Method: FIGS. 5A and 5B show PBMCs from normal healthy donor treated with WL40 and WL44 at the indicated concentrations for 48 hours. […]
The IC50 of WL40 for cell lines is shown.

MM.1S CRBN KO cells = assay: MM.1S CRBN KO cell viability; assay type: cell-based, Human; conditions: MM.1S-CRBN KO; 24 hours; Wst-1
Source text: FIGS. […] Wst-1 assay was used to test cell viability.
The experiment was repeated twice and JQRA concentration was increased (as indicated) at the second time.

[3] = system: HCT116 and HCT116-Rpn13KO cell lines; assay: HCT116 and HCT116-Rpn13KO cell viability; assay type: cell-based; conditions: HCT116 versus HCT116-Rpn13KO; 48 hours; Wst-1
Method: FIGS. 8A and 8B show HCT116 and HCT116-Rpn13KO cell lines that were treated with WL40 or WL44 at the indicated concentrations for 48 hours. Wst-1 assay was used to test cell viability.
CRISPR-Cas9 genome editing was performed to generate Rpn13-knockout (Rpn13-KO) HCT116 and MM.1S cell lines. Cells were transfected with Rpn13-CRISPR/Cas9-knockout (KO) plasmid (Santa Cruz Biotechnology, Inc., Santa Cruz, Calif., USA) using Lipofectamine 2000 (Thermo Fisher Scientific, Waltham, Mass., USA) or the cell line Nucleofector Kit V (Amaxa Biosystems, Cologne, Germany), respectively. After 48 h incubation, green fluorescent protein (GFP)-positive cells were sorted. Rpn13 KO was confirmed by both protein expression studies and DNA sequencing.

MM.1S cells = assay: MM.1S cell viability (WST); conditions: 24 hours, Wst-1
Method: FIGS. 4A and 4B show multiple myeloma 1S (MM.1S) cells treated with RA190, WL40, and WL44 at the indicated concentrations for 24 hours. Wst-1 assay was used to test cell viability.
In FIG. 13B, multiple myeloma cells (MM.1S) were treated with RA190 or compound JQRA at the indicated concentrations for 72 hours, and the percentage of viable cells was measured.
Purified CD138^+ patient MM cells, which were treated with DMSO control or WL40 at indicated concentrations for 48 hours, followed by assessment for cell viability using CellTiter-Glo assay (mean±SD of triplicate cultures; p<0.001). […] Normal PBMCs from healthy donors were treated with DMSO control or WL40 at indicated concentrations for 48 hours, and then analyzed for cell viability using CellTiter-Glo assay (mean±SD of quadruplicate cultures). […] MM.1S cells were cultured with or without patient BMSCs in the presence or absence of WL40 for 48 hours, and cell proliferation was measured by WST assay (mean±SD; n=3; p<0.0001). […] MM.1S cells were cultured with or without patient pDCs in the presence or absence of WL40 for 48 hours, and cell proliferation was measured by WST assay (mean±SD; n=3; p<0.0001).

| SMILES | WL40-mediated Rpn13 degradation after proteasome inhibitor pretreatment (RPN13; MM.1S, MG132 (10 μM) 1 hour, then WL40 (400 nM) 8 hours) | Ub-GFP levels / proteasome function (immunoblot) [1] | cell viability IC50 [2] | viability of normal PBMCs (normal PBMCs) | cell viability (MM.1S CRBN KO cells) | RPN13 dependence of cytotoxicity [3] | cell viability IC50 (MM.1S cells) | Rpn13 levels (immunoblot) (RPN13; MM.1S cells, 200 nM, 400 nM, 800 nM, 4, 8, 16 hours) |
| --- | --- | --- | --- | --- | --- | --- | --- | --- |
| CC(C)C[C@@H](C=O)NC(=O)[C@H](CC(C)C)NC(=O)[C@H](CC(C)C)NC(=O)OCc1ccccc1 [MG132, reference compound] (Cbz-Leu-Leu-Leu-aldehyde) | blocked WL40-mediated Rpn13 degradation | – | – | – | – | – | – | – |
| O=C1CCC(N2C(=O)c3ccc(NCCOCCOCCOCCC(=O)N[C@H](Cc4ccccc4)C(=O)N4C/C(=C\c5ccc(Cl)c(Cl)c5)C(=O)/C(=C/c5ccc(Cl)c(Cl)c5)C4)cc3C2=O)C(=O)N1 (some centres unmarked) [WL44] | – | block proteasome function | high IC50 in several cell lines | do not significantly affect the viability | decrease cell viability | RPN13-dependent | lower IC50 compared to compound RA190 | degrade Rpn13 |
